# Columns and labels:
# [1] = target: N-glycosyltransferase from Actinobacillus pleuropneumoniae (Actinobacillus pleuropneumoniae serotype 5b, UniProt A3N2T3); assay: GlycoSCORES: peptide glycosylation by NGT, read by SAMDI-MS; format: biochemical; settings: for MO[…]: 4-mer peptides, fraction modified (0-1); for modification by NGT in GlycoSCORES peptide screens: CFPS NGT; for modification by NGT in GlycoSCORES peptide screens / glucose modification of truncated GSDQNATF peptides / glycosylation / modification efficiency: 50 μM peptide, 2.5 mM UDP-Glc; for modification by NGT in GlycoSCORES peptide screens / glucose modification of truncated GSDQNATF peptides: 30° C.; for glucose modification of truncated GSDQNATF peptides: 0.5 μM purified NGT, 3 h; for glycosylation / modification efficiency: 6-mer sequences in GlycoSCORES peptide screens, 0.025 μM NGT for 1 h
# NGT [2] = target: T1, NGT (Actinobacillus pleuropneumoniae serotype 5b, UniProt A3N2T3); format: cell-based
# NGT [3] = target: T1, NGT; format: biochemical; settings: 5 μM Im7 variant, 0.1 μM NGT, 2.5 mM UDP-Glc, 2.5 h, 30° C.
# NGT [4] = target: T1, NGT; format: biochemical; settings: 50 μM peptide, 1 mM sugar donor, purified NGT, 30° C.
# Sequence of N-glycosyltransferase from Actinobacillus pleuropneumoniae (A3N2T3 whole entry, the tested form may be a part): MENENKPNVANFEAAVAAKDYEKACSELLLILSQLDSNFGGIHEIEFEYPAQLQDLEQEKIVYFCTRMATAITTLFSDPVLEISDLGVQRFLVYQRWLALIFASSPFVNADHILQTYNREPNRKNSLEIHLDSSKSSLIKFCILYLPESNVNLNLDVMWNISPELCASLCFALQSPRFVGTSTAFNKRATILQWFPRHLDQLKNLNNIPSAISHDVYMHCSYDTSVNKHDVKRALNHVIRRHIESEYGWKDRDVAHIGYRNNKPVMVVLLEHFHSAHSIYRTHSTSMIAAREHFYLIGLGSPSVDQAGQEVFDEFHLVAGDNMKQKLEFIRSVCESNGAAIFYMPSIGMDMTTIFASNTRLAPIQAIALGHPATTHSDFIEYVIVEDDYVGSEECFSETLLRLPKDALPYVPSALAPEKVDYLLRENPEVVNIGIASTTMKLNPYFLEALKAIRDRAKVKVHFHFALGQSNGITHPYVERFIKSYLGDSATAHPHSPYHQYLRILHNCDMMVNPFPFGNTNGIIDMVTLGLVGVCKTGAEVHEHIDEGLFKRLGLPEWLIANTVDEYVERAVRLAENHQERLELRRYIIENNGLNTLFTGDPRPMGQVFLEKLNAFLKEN
# T1 sequence (A3N2T3 whole entry): as the sequence (A3N2T3 whole entry, the tested form may be a part) above
molecule,measurement,setting,value
PNLT,MO[…],[1],0.8254
GNWT,MO[…],[1],0.9409
WNIS,MO[…],[1],0.746
ANVS,MO[…],[1],0.9611
SNAT,MO[…],[1],0.8383
ANYT,MO[…],[1],0.91
NNRT,MO[…],[1],0.7671
PNIT,MO[…],[1],0.9358
MNIT,MO[…],[1],0.7393
PNVS,MO[…],[1],0.9374
ENVS,MO[…],[1],0.6584
GGNWTT,modification by NGT in GlycoSCORES peptide screens,[1],more efficiently glycosylated than any previously studied
same,glycosylation of Fc variant in E. coli cytoplasm,"NGT [2]; BL21(DE3) E. coli, Fc induced 2 h, then NGT 30 min",most efficient glycosylation
same,modification of HMW1ct variant in E. coli cytoplasm,"NGT [2]; GlycTag at Asn1366, HMW1ct induced 1 h, then NGT 2 h",highest modification
same,glycosylation of Im7 variant,NGT [3],most efficient modification within the Im7 protein
SNIT,MO[…],[1],0.7453
PNYS,MO[…],[1],0.6762
WNAT,MO[…],[1],0.8599
WNHT,MO[…],[1],0.8335
GNHT,MO[…],[1],0.7856
ENHT,MO[…],[1],0.7656
ANTT,MO[…],[1],0.7872
ANYS,MO[…],[1],0.6975
HNVS,MO[…],[1],0.9185
LNVT,MO[…],[1],0.6724
HNHS,MO[…],[1],0.6747
NNVS,MO[…],[1],0.7147
MNVT,MO[…],[1],0.8374
TNST,MO[…],[1],0.6424
ANVT,MO[…],[1],0.9844
ENVT,MO[…],[1],0.8903
SNTT,MO[…],[1],0.5496
MNHT,MO[…],[1],0.855
PNFT,MO[…],[1],0.8402
DNVT,MO[…],[1],0.5073
GNVT,MO[…],[1],0.8843
NNHS,MO[…],[1],0.6848
NNAT,MO[…],[1],0.7664
VNAT,MO[…],[1],0.6982
TNAT,MO[…],[1],0.7761
DNHT,MO[…],[1],0.7287
SNVT,MO[…],[1],0.9488
PNRT,MO[…],[1],0.8662
MNTT,MO[…],[1],0.5502
GNYT,MO[…],[1],0.5195
TNHT,MO[…],[1],0.8444
QNVT,MO[…],[1],0.5056
WNIT,MO[…],[1],0.9275
ANMS,MO[…],[1],0.5336
HNIT,MO[…],[1],0.8411
TNHS,MO[…],[1],0.5091
PNHS,MO[…],[1],0.6988
GNVS,MO[…],[1],0.6117
VNVT,MO[…],[1],0.8081
LNIT,MO[…],[1],0.5288
ANHS,MO[…],[1],0.6918
CNAT,glucose modification of truncated GSDQNATF peptides,[1],could be modified by NGT
ANRT,MO[…],[1],0.8206
PNTT,MO[…],[1],0.8532
TNVT,MO[…],[1],0.9096
ENST,MO[…],[1],0.6042
ANAT,MO[…],[1],0.9101
MNIS,MO[…],[1],0.5286
SNRT,MO[…],[1],0.6821
VNIT,MO[…],[1],0.6873
MNAT,MO[…],[1],0.7903
SNYT,MO[…],[1],0.6177
GNWS,MO[…],[1],0.72
"O=c1ccn([C@@H]2O[C@H](COP(=O)(O)OP(=O)(O)O[C@H]3OC[C@@H](O)[C@H](O)[C@H]3O)[C@@H](O)[C@H]2O)c(=O)[nH]1 [UDP-Xyl, UDP-xylose]",efficiency of sugar transfer by NGT,NGT [4],much lower efficiencies
ANFT,MO[…],[1],0.8633
ANIS,MO[…],[1],0.8694
YANATS,glycosylation / modification efficiency,[1],~36%
PNMS,MO[…],[1],0.636
INVT,MO[…],[1],0.6893
SNHS,MO[…],[1],0.5937
PNST,MO[…],[1],0.8271
PNYT,MO[…],[1],0.8963
NNHT,MO[…],[1],0.8624
SNHT,MO[…],[1],0.906
WNRT,MO[…],[1],0.6933
PNAT,MO[…],[1],0.8919
NHNETD,modification by NGT in GlycoSCORES peptide screens,[1],no detectable modification
ANST,MO[…],[1],0.7846
SNVS,MO[…],[1],0.971
HNIS,MO[…],[1],0.704
MNHS,MO[…],[1],0.6816
MNMT,MO[…],[1],0.5547
TNVS,MO[…],[1],0.8695
HNAT,MO[…],[1],0.7427
FANATT,glycosylation / modification efficiency,[1],~75%
MNRT,MO[…],[1],0.6724
GNWTRC,modification by NGT in GlycoSCORES peptide screens,[1],among the most efficiently glycosylated sequences
PNIS,MO[…],[1],0.8821
MNVS,MO[…],[1],0.9118
SNST,MO[…],[1],0.5156
HNRT,MO[…],[1],0.6962
PNMT,MO[…],[1],0.8399
QNATFC,glucose modification of truncated GSDQNATF peptides,[1],most efficient glucose modification
ANLT,MO[…],[1],0.6957
PNVT,MO[…],[1],0.9741
YANATT,modification by NGT in GlycoSCORES peptide screens,[1],efficiently modified
ENRT,MO[…],[1],0.7271
